{
  "source": "patent US20100120703A1",
  "about": "“COMPOSITIONS AND METHODS FOR TREATING CANCER” (priority 2007, published 2010)",
  "key": {"[1]": {"system": "rats previously treated with dimethylhydrazine (DMH)", "settings": "cited from earlier work"}, "HepG2 cells": {"system": "HepG2 cells", "test": "Apoptosis determination by DNA fragmentation assay", "type": "cell-based, human", "text": "DNA fragmentation or DNA laddering is an indication of apoptosis. During the apoptosis process, the enzymes involved in DNA repair and cell replication are inactivated and nuclear proteins are degraded. After the nuclear structure is fragmented, DNA inside the nucleus is fragmented by the enzyme Caspase Activated DNase. This enzyme is only activated during apoptosis and causes the fragmentation of DNA into nucleosomal units (Hugh J M Brady, 2004). DNA fragmentation is used to identify the apoptosis event.\nHepG2 cells were treated and harvested as described in the foregoing examples. The cell pellet was re-suspended in 400 μl of the lysis buffer by vortexing. Twenty microliters of 10 mg/ml protease K were added into the solution after a complete dissolution. The solution was incubated at 37° C. for 3 hours to completely lyse the cells. After incubation, the solution was allowed to cool to room temperature. One hundred and fifty microliters of a saturated NaCl solution were added into the cell lysate and vortexed. The lysate was centrifuged at 7,000 rpm for 15 minutes. The supernatant was collected in a new microcentrifuge tube. One milliliter of ice cold absolute ethanol was added to the solution to precipitate DNA. After precipitation, the microcentrifuge tube was centrifuged at 14,000 rpm for 20 minutes at 4° C. […]"}, "[2]": {"system": "p53, Mdm2, p21, PCNA, Bax and Bcl-2", "test": "Gene expression assay (RT-PCR, Western blot) in rat liver, promotion stage", "type": "in vivo", "description": "Expression patterns, at both mRNA and protein levels, of selected genes related to apoptosis and tumors were examined to investigate the mechanism by which sinigrin prevent tumor occurrence.\nRNA was extracted from 300 μg of rat liver and was measured as described in foregoing examples Three micrograms of total RNA, 1 μl of an oligo dT primer and certain volume of RNase-Free H2O were mixed into a total volume of 12 μl. The mixture was incubated at 70° C. for 10 minutes and immediately chilled on ice. Four microliters of 5× First Stand Buffer, 2 μl of 0.1M DTT, 1 μl of 10 mM dNTP mix, and 1 μl of SuperScript II were added to each tube and mixed. The tubes were incubated at 42° C. for 50 minutes followed by 70° C. for 15 minutes before chilling on ice. The cDNA was then ready for PCR amplification.\nThe PCR reactions were performed in a final volume of 20 μl in a Gene Amp® PCR system. The PCR reaction mix contained 1 μl of cDNA synthesized previously, 2 μl 10×PCR Buffer, 0.4 μl 10 mM dNTP mix, 1.2 μl 25 mM MgCl2, 1 μl 10 mM primer mix, 0.2 μl recombinant Taq polymerase, and 14.2 μl autoclaved ddH2O.\nFor synthesis of β-actin gene as the internal control and Mdm2 gene, the PCR mixture was incubated at 94° C. for 5 minutes followed by 30 cycles of amplification. Each cycle consisted of 45 seconds of denaturation at 94° C., 45 seconds of annealing at 55° C. and 30 seconds of extension at 72° C. After all cycles were completed, a final extension step at 72° C. for 10 minutes was performed. The PCR products were ready for gel electrophoresis.\nFor synthesis of p53, the number of cycle was enhanced to 35, the annealing temperature was enhanced to 58° C., and the extension time was extended to 1.5 minutes, respectively.\nThe intensity of the PCR products was analyzed by the software Image J. The band intensity of the β-actin gene was measured as an internal control. The ratio of the band intensities of the target gene to the β-actin gene was used to compare the mRNA level of each gene between different treatment groups.\nThree hundred micrograms of each liver sample were homogenized in the Solution C at 1 g/ml using a glass homogenizer on ice. The homogenate was transferred to a microcentrifuge tube and centrifuged at 13,000 rpm for 20 minutes. The supernatant was collected and equal volume of 2× sample loading dye was added to each sample. The samples were stored at −20° C. The protein was used for immunodetection of the expression level of Bax, Bcl-2, PCNA and p21.\nThree hundreds micrograms of each liver sample were homogenized in Solution A at 1 g/ml using the glass homogenizer on ice. The homogenate was transferred into a microcentrifuge tube and centrifuged at 3,000 rpm for 5 minutes to spin down the unbroken tissue. The supernatant was collected and incubated on ice for 5 minutes and then centrifuged at 5,000 rpm for 5 minutes. The supernatant was discarded and the pellet was lysed by 100 μl Solution B. The lysing process lasted for 20 minutes on ice. After incubation, the solution was centrifuged at 12,000 rpm for 15 seconds to spin down the cell debris. The supernatant was collected and equal volume of 2× sample loading dye was added to each sample. The samples were ready for immunodetection of the expression level of p53 and mdm2.\nThe Mini-PROTEAN II electrophoresis cell (Bio-Rad) was used for sodium dodecyl sulfate poly acrylamide gel electrophoreses (SDS-PAGE). The gel mold was assembled according to the protocol. About 3 ml water was poured into the set mold to test for leakage. After discarding the water, resolving gel solution was prepared according to the established protocol. A 10% acrylamide gel was used for the separation. The resolving gel was poured into the mold at a proper volume (about ⅔ full). After the gel solution was poured into the mold, a thin layer of distilled water was poured on the gel solution to ensure the surface of the gel was smooth. The gel was allowed to polymerize for 30 minutes. […]"}},
  "data": [
    {"compound": "C=CC/C(=N/OS(=O)(=O)[O-])S[C@@H]1OC(CO)[C@@H](O)C(O)C1O.[K+]", "note": "(stereo partly shown) [SIN, sinigrin]", "values": [
      {"measurement": "apoptosis in colonic tissue vs DMH only", "setting": "[1]; DMH treated rats", "result": "higher level of apoptosis"},
      {"measurement": "aberrant crypt foci in colonic tissue", "setting": "[1]; sinigrin administered after DMH", "result": "suppresses induction of aberrant crypt foci"},
      {"measurement": "DNA ladder on agarose gel", "setting": "HepG2 cells; 0.25 mM SIN", "result": "A DNA ladder started to appear"},
      {"measurement": "DNA ladder on agarose gel", "setting": "HepG2 cells; 0.5 mM SIN, 96 hours", "result": "a DNA ladder was clearly visible"},
      {"measurement": "Mdm2 mRNA expression", "setting": "[2]; RT-PCR", "result": "decreased back to levels near the negative control"},
      {"measurement": "p53 mRNA expression", "setting": "[2]; RT-PCR", "result": "decreased back to levels near the negative control"},
      {"measurement": "Bax protein expression (decreased in positive group)", "setting": "[2]; Western blot", "result": "reversed"},
      {"measurement": "Bcl-2 protein expression (increased in positive group)", "setting": "[2]; Western blot", "result": "reversed"},
      {"measurement": "Mdm2 protein expression (increase in positive control)", "setting": "[2]; Western blot", "result": "partially reversed"},
      {"measurement": "PCNA protein expression (increased in positive group)", "setting": "[2]; Western blot", "result": "reversed"},
      {"measurement": "p21 protein expression", "setting": "[2]; Western blot", "result": "much higher than that of the negative control and the positive control"},
      {"measurement": "total p53 protein level", "setting": "[2]; Western blot", "result": "significantly increased"},
      {"measurement": "wild type p53 protein level", "setting": "[2]; Western blot", "result": "restored its expression to a level even higher than the negative control"}
    ]}
  ]
}
